Measured values reported in patent US20240000872A1, “NOVEL BACTERIOPHAGE THAT LYSES ACINETOBACTER GENUS BACTERIA HAVING RESISTANCE TO ANTIBIOTICS” (priority 2020, published 2024).

Test system: Acinetobacter baumannii strains
Test: Antibiotic susceptibility test (CLSI disk diffusion test method, read per CLSI 2016); as to antibiotic susceptibility S/I/R: key: ‘S’ means susceptible; ‘I’ means intermediate; ‘R’ means resistant; as to susceptibility category (S/I/R): key: ‘S’ means susceptible; ‘I’ means intermediate; ‘R’ means resistant
Assay type: cell-based
Set-up: antibiotic susceptibility test value / susceptibility test value (number given before S/I/R) / antibiotic susceptibility value: unit not given here

Substance: ampicillin-sulbactam
- susceptibility test value (number given before S/I/R) (host strain YMC17/01/R2812): 32
- antibiotic susceptibility S/I/R (host strain YMC17/02/B14): R
- antibiotic susceptibility value (host strain YMC17/02/B14): 32
- susceptibility category (S/I/R) (host strain YMC17/02/B14): R
- susceptibility test value (number given before S/I/R) (host strain YMC17/02/B14): 32
- antibiotic susceptibility value (host strain YMC17/02/B87): 16
- susceptibility category (S/I/R) (host strain YMC17/02/B87): I
- susceptibility test value (number given before S/I/R) (host strain YMC17/02/B87): 16
- antibiotic susceptibility S/I/R (host strain YMC17/02/B721): R
- antibiotic susceptibility value (host strain YMC17/02/B721): 32
- susceptibility category (S/I/R) (host strain YMC17/02/B721): R
- susceptibility test value (number given before S/I/R) (host strain YMC17/02/B721): 32
- antibiotic susceptibility S/I/R (host strain YMC17/02/B4039): R
- antibiotic susceptibility value (host strain YMC17/02/B4039): 32
- susceptibility category (S/I/R) (host strain YMC17/02/B4039): R
- susceptibility test value (number given before S/I/R) (host strain YMC17/02/B4039): 32
- antibiotic susceptibility S/I/R (host strain YMC17/02/B4520): R
- antibiotic susceptibility value (host strain YMC17/02/B4520): 32
- susceptibility category (S/I/R) (host strain YMC17/02/B4520): R
- susceptibility test value (number given before S/I/R) (host strain YMC17/02/B4520): 32
- antibiotic susceptibility S/I/R (host strain YMC17/02/B4864): S
- antibiotic susceptibility value (host strain YMC17/02/B4864): 2
- susceptibility category (S/I/R) (host strain YMC17/02/B4864): S
- susceptibility test value (number given before S/I/R) (host strain YMC17/02/B4864): 2
- antibiotic susceptibility value (host strain YMC17/02/B8414): 16
- susceptibility category (S/I/R) (host strain YMC17/02/B8414): I
- susceptibility test value (number given before S/I/R) (host strain YMC17/02/B8414): 16
- antibiotic susceptibility value (host strain YMC17/02/P523): 16
- susceptibility category (S/I/R) (host strain YMC17/02/P523): I
- susceptibility test value (number given before S/I/R) (host strain YMC17/02/P523): 16
- antibiotic susceptibility S/I/R (host strain YMC17/02/R541): R
- antibiotic susceptibility value (host strain YMC17/02/R541): 32
- susceptibility category (S/I/R) (host strain YMC17/02/R541): R
- susceptibility test value (number given before S/I/R) (host strain YMC17/02/R541): 32
- antibiotic susceptibility S/I/R (host strain YMC17/02/R2392): R
- antibiotic susceptibility value (host strain YMC17/02/R2392): 32
- susceptibility category (S/I/R) (host strain YMC17/02/R2392): R
- susceptibility test value (number given before S/I/R) (host strain YMC17/02/R2392): 32
- antibiotic susceptibility value (host strain YMC17/03/B4730): 16
- susceptibility category (S/I/R) (host strain YMC17/03/B4730): I
- susceptibility test value (number given before S/I/R) (host strain YMC17/03/B4730): 16
- antibiotic susceptibility S/I/R (host strain YMC17/03/B5000): R
- antibiotic susceptibility value (host strain YMC17/03/B5000): 32
- susceptibility category (S/I/R) (host strain YMC17/03/B5000): R
- susceptibility test value (number given before S/I/R) (host strain YMC17/03/B5000): 32
- antibiotic susceptibility S/I/R (host strain YMC17/03/P971): S
- antibiotic susceptibility value (host strain YMC17/03/P971): 8
- susceptibility category (S/I/R) (host strain YMC17/03/P971): S
- susceptibility test value (number given before S/I/R) (host strain YMC17/03/P971): 8
- antibiotic susceptibility value (host strain YMC17/03/R348): 16
- susceptibility category (S/I/R) (host strain YMC17/03/R348): I
- susceptibility test value (number given before S/I/R) (host strain YMC17/03/R348): 16
- antibiotic susceptibility S/I/R (host strain YMC17/03/R585): R
- antibiotic susceptibility value (host strain YMC17/03/R585): 32
- susceptibility category (S/I/R) (host strain YMC17/03/R585): R
- susceptibility test value (number given before S/I/R) (host strain YMC17/03/R585): 32
- antibiotic susceptibility S/I/R (host strain YMC17/03/R1888): S
- antibiotic susceptibility value (host strain YMC17/03/R1888): 8
- susceptibility category (S/I/R) (host strain YMC17/03/R1888): S
- susceptibility test value (number given before S/I/R) (host strain YMC17/03/R1888): 8
- antibiotic susceptibility value (host strain YMC17/03/R3279): 16
- susceptibility category (S/I/R) (host strain YMC17/03/R3279): I
- susceptibility test value (number given before S/I/R) (host strain YMC17/03/R3279): 16
- antibiotic susceptibility value (host strain YMC17/03/R4077): 16
- susceptibility category (S/I/R) (host strain YMC17/03/R4077): I
- susceptibility test value (number given before S/I/R) (host strain YMC17/03/R4077): 16
- antibiotic susceptibility value (host strain YMC17/03/R4607): 16
- susceptibility category (S/I/R) (host strain YMC17/03/R4607): I
- susceptibility test value (number given before S/I/R) (host strain YMC17/03/R4607): 16
- antibiotic susceptibility value (host strain YMC17/04/R488): 16
- susceptibility category (S/I/R) (host strain YMC17/04/R488): I
- susceptibility test value (number given before S/I/R) (host strain YMC17/04/R488): 16
- antibiotic susceptibility value (host strain YMC17/04/R640): 16
- susceptibility category (S/I/R) (host strain YMC17/04/R640): I
- susceptibility test value (number given before S/I/R) (host strain YMC17/04/R640): 16
- antibiotic susceptibility value (host strain YMC/17/05/R1095): 16
- susceptibility category (S/I/R) (host strain YMC/17/05/R1095): I
- susceptibility test value (number given before S/I/R) (host strain YMC/17/05/R1095): 16
